Data published in patent publication US8987449B2, “Medicine for treating ischemic brain injury and its sequelae, and preparation method thereof” (Haimin Lei, priority 2011, dated 2015).

Tests used:
Type in all cases: in vivo, rat
MDA = MDA of MCAO rats (brain homogenate, kit); settings: model group 14.53 ± 3.29
Protocol: 10% chloral hydrate 0.35 g/kg was injected into the abdominal cavity of a rat to anesthetize thereof. The rat was fixed as supine position. The skin was disinfected thereof by 75% medical alcohol. It was cut right in the middle of the neck. The right common carotid artery, internal carotid artery and external carotid artery were separated and the common carotid artery and external carotid artery were ligated. The internal carotid artery was clamped with a bulldog clamp. A cut was made at the crotch of the external carotid artery and the internal carotid artery followed by releasing the bulldog clamp. The nylon wire (diameter 0.25 mm, marked at a distance of 18 mm from the head end) was inserted into the cut and the insertion was stopped when some resistance was felt. The insert depth was a little longer than 18 mm to achieve the cerebral ischemia caused by middle cerebral artery occlusion. The internal carotid artery was ligated and the nylon wire was fixed. The muscle and skin were sutured layer by layer. In sham operation group, the right common carotid artery, the external carotid artery and the internal carotid artery were only exposed and separated. The rats were conventionally raised in different cages regularly. 0.5 ml penicillin was continuously injected into every rat for three days after the surgery.
The rats were divided into 7 groups in the experiment, that is, sham operation group, model group, Nimodipine group, LQC-T4 large dosage group, LQC-T4 small dosage group, TMP group, and TMP+Vanillic acid group. The model rats getting 1 point were distributed randomly into the model group and other administration group, while the rats getting 2 point and 3 point were distributed randomly into above 6 groups according the above method and sham operation group was not involved in the above grouping. 0.5% CMC-NA (1 ml·100 g^−1) was administrated intragastrically to the blank control group and the model group, two dosage group of 120 mg·kg^−1, 60 mg·kg^−1 were administrated intragastrically to the LQC-T4 (1 ml·100 g^−1) group, and 74 mg·kg^−1 TMP+46 mg·kg^−1 vanillitc acid (1 ml·100 g^−1) were administrated intragastrically, once per day continuously for 10 days.
10% chloral hydrate 0.35 g/kg was injected into the abdominal cavity to anesthetize them after the rats were administrated for 10 days. The head was cut and the brain was taken. The cranial bones were stripped, the meninges were peeled off to separate the ischemia side of the brain, the blood streak was striped and then the brain was weighed. 4 times amount of 0.9 physiological saline was added and the brain was homogenized in 0° C. ice bath. […]
It was detected with 722 type visible spectrophotometer according to the kit operation. […]

MCAO rats = assay: Tactile stimulus experiment (time of MCAO rats removing the tape); settings: for time of removing the tape, Evaluation (3 d): model group 244.29 ± 95.46; for time of removing the tape, Evaluation (7 d): model group 221.53 ± 105.33
From the text: 140 healthy SD male rats, weighing 280-300 g, provided by Beijing Vital River Laboratories, certificate No.: SCXK (Jing) 2002-2003. The method of [Koizumi J, Yoshida […]. Experimental studies of ischemia brain edema, I: A new experimental model of cerebral embolism in rats in which recirculation can be introduced in the ischemic area[J]. […] After the rats were anesthetized and the skin thereof was disinfected by ethanol. By cutting right in the middle of the neck, the right common carotid artery, internal carotid artery and external carotid artery were separated and the common carotid artery and external carotid artery were ligated. The internal carotid artery was clamped with a bulldog clamp. A cut was made at the crotch of the external carotid artery and the internal carotid artery followed by releasing the bulldog clamp. […] Next, the external carotid artery was ligated and the nylon wire was fixed. In sham operation group, the right common carotid artery, the external carotid artery and the internal carotid artery were only exposed and separated. The rats were routinely raised in different cages. 0.5 ml penicillin was continuously injected into every mouse for three days after the surgery. […] The rats getting 1-3 point were selected for the subsequent experiment. The MCAO rats having the same point were distributed randomly and averagely to each experimental group. […] Evaluated was the executive function change of side forelimb sense and fine motor movement after the cerebral ischemia. […] The third and the seventh days after the administration were set as the observation time to carry out the test. The SPSS 11.0 software pack was used to carry out the statistical analysis of all the data. The comparison of the enumeration data was carried out with X^2 test P<0.05 had statistical meaning.

VEGF = VEGF content of MCAO rats (kit, 450 nm); settings: brain homogenate, model group 18.28 ± 1.62
From the text: 1.1 Experimental animal and 1.2 Medicine to be tested: the same as effect example 6
1.3 Experimental reagents: PBS, VEGF kit
1.4 Experimental instruments: nylon fishing wire having a diameter of 0.25 mm, German; enzyme-labeling instrument (Finland, Thermo BioAnalysis Company's product, Multiskan MK3 model); surgical instruments, Surgical Instrument Factory of Shanghai Medical Apparatus And Instruments CO, LTD.
2.1 The preparation of re-perfusion model of middle cerebral artery occlusion of a rat: the same as effect example 6
2.2 The judgment on whether the model was successful and 2.3 Grouping and administration: the same as effect example 6
2.4 Taking Material and treatment: the same as effect example 6
As to VEGF, it is detected using enzyme-labeling instrument at 450 nm according to the kit.
The SAS 8.2 statistical software was used to carry out the one-way ANOVA variance analysis and the differences among the groups were compared by t-test.

[1] = 37 mg/kg once per day for 10 days
[2] = 60 mg/kg intragastrically once per day for 10 days
[3] = 120 mg/kg intragastrically once per day for 10 days
[4] = 60 mg/kg intragastrically once a day
[5] = 120 mg/kg intragastrically once a day
[6] = 30 mg/kg once per day for 10 days

With `Cc1nc(C)c(C)nc1C` [TMP, tetramethylpyrazine, reference compound] the MDA (MDA; [1]) was 13.27 ± 3.96, the “time of removing the tape, Evaluation (3 d)” value (“time … (3 d)” for short) (MCAO rats; 37 mg/kg once a day) was 200.43 ± 117.81 s and the “time of removing the tape, Evaluation (7 d)” value (shortened to “time … (7 d)”) (MCAO rats; 37 mg/kg once a day) was 211.35 ± 111.15 s. It also gave a VEGF (VEGF; [1]) of 23.62 ± 6.68.

`COc1cc(C(=O)OCc2nc(C)c(C)nc2C)ccc1OCc1nc(C)c(C)nc1C` [LQC-T4, (3,5,6-trimethylpyrazine-2-yl)methyl 3-methoxy-4-((3,5,6-trimethylpyrazine-2-yl)methoxy) benzoate] was tested, and the MDA (MDA; [2]) was 14.32 ± 6.31, the MDA (MDA; [3]) was 11.08 ± 4.53 and the “time … (3 d)” value (MCAO rats; [4]) was 181.31 ± 133.40 s. For the same compound, the “time … (7 d)” value (MCAO rats; [4]) was 175.80 ± 139.06 s, the “time … (3 d)” value (MCAO rats; [5]) was 222.64 ± 104.45 s and the “time … (7 d)” value (MCAO rats; [5]) was 245.95 ± 98.23 s. The VEGF (VEGF; [2]) was 25.67 ± 9.69 and the VEGF (VEGF; [3]) was 22.86 ± 8.42.

`COCCOC(=O)C1=C(C)NC(C)=C(C(=O)OC(C)C)C1c1cccc([N+](=O)[O-])c1` (stereo not shown) [Nimodipine, reference compound] was tested, and the MDA (MDA; [6]) was 13.70 ± 6.56, the “time … (3 d)” value (MCAO rats; 30 mg/kg once a day) was 211.13 ± 116.65 s and the “time … (7 d)” value (MCAO rats; 30 mg/kg once a day) was 183.93 ± 124.50 s. The VEGF (VEGF; [6]) was 19.66 ± 2.34.
